Patent publication US7763650B2, “Pharmaceutical compound and method” (Medipharma S.A., priority 2006, dated 2010)

How the values were obtained:
mice = experiment: RotoRod minimal neurotoxicity test; type: in vivo; details: for Protection: Rotorot test on Effective Doses 50: mouse, in vivo
Protocol: In Vivo Experiments: The pharmacological tests were performed according to standard procedures provided by the Antiepileptic Drug Development (ADD) Program of the National Institute of Neurological and Communicative Disorders and Stroke (NINCDS). Neurotoxicity tests: The RotoRod test is used exclusively in mice to assess minimal neurotoxicity. A normal mouse can maintain its equilibrium on a rotating rod (6 rpm) for long periods of time. Neurological deficit is indicated by failure to keep walking on this rotating rod in each of three trials of 1 min each. Estimation of the neurotoxic effects: Groups of 8 animals per dose were injected and tested with the RotoRod test. The percentages of animals showing minimal neurotoxicity were recorded and the higher dose producing neurotoxic effects is reported.

[1] = tested on: Maximal electroshock seizures; experiment: Maximal electroshock seizure (MES) anticonvulsant test; type: in vivo; details: mice; for Relative Power in relation to 2-propylpentanoic acid (Valproic acid): MES test; for MES test: Effective doses 50: ip, at time of peak effect, micromols per Kg of mouse weight
Protocol: In Vivo Experiments: The pharmacological tests were performed according to standard procedures provided by the Antiepileptic Drug Development (ADD) Program of the National Institute of Neurological and Communicative Disorders and Stroke (NINCDS). Anticonvulsant tests: Maximal electroshock seizures were elicited in mice by delivering a 60 Hz/50 mA electrical stimulus for 0.2 sec. via ear clip electrodes. A drop of saline solution applied on each ear before placing the electrodes ensures adequate electrical contact. In these conditions, maximal seizures are produced in virtually all normal mice. The maximal seizure typically consists of a short period of tonic flexion followed by a longer period of tonic extension of the hind limbs and a final clonic episode. Blockade of the hind limbs tonic extensor component due to the drug treatment is taken as the end point. […] Determination of the Time of Peak Effect (TPE): […] The percentages of protection or neurotoxicity are recorded and plotted against time and the TPEs are determined by visual inspection of the graphs. Estimation of the ED50s: Groups of 8 animals per dose are injected via ip. […] The percentages of protection at each dose (converted to probit) were plotted against log-doses.

Molecule	Protection: Rotorot test on Effective Doses 50 (mice)	Relative Power in relation to 2-propylpentanoic acid (Valproic acid) [1]	MES test: Effective doses 50 [1] [µmol/kg]	Rotorod: animals showing neurotoxicity / animals tested (mice; mice, dose not given)	Protective index (Rotorod neurotoxic dose / MES ED50) (mice; ratio of Rotorod dose to MES ED50, mice)
CCCC(CCC)C(=O)OC1C(O)C(O)C(OC(=O)C(CCC)CCC)C(OC(=O)C(CCC)CCC)C1OC(=O)C(CCC)CCC (racemic) [Example 4, (±)-3,4,5,6-tetra-O-(2-propylpentanoyl)-myo-inositol]	6	9	100		
CCCC(CCC)C(=O)OC1C(O)C(O)C(O)C(O)C1OC(=O)C(CCC)CCC (racemic) [Example 5, (±)-3,4-Di-O-(2-propylpentanoyl)-myo-inositol]	12	35	35		
CCCC(CCC)C(=O)O[C@H]1[C@H](OC(=O)C(CCC)CCC)[C@@H](OC(=O)C(CCC)CCC)[C@H](OC(=O)C(CCC)CCC)[C@@H](OC(=O)C(CCC)CCC)[C@H]1OC(=O)C(CCC)CCC [Example 1, (±)1,2,3,4,5,6-hexa-O-(2-propylpentanoyl)-myo-inositol]			100	0/6	
CCCC(CCC)C(=O)O [Valproic acid, valproic acid, reference compound]		1	1010		
(±)-5,6-Di-O-(2-propylpentanoyl)-1,2:3,4-di-O-cyclohexyl-O-myo-inositol [Example 2]		35	80		12
